Experimental data as given in patent US20180110824A1, “Macrocyclic Modulators of the Ghrelin Receptor” (Ocera Therapeutics, Inc., priority 2016, published 2018).
Like-named read-outs stand apart in the source and are kept apart here.

Tests used:
[1] = tested on: rat model of post-operative ileus (POI); assay: Gastric emptying and intestinal transit in rat model of postoperative ileus; format: in vivo
From the text: This clinically relevant model for POI is adapted from that of […].; Simmons, R. L.; Bauer, A. J. Surgical manipulation of the gut elicits an intestinal muscularis inflammatory response resulting in postsurgical ileus. Ann. Surg. 1998, 228, 652-663.) Other known models can also be used to study the effect of compounds of the invention. […] Rat, Sprague-Dawley, male, 300 g. • 2. Fasted O/N prior to study. • 1. Isofluorane anaesthesia under sterile conditions. • 2. Midline abdominal incision. • 3. Intestines and caecum were eviscerated and kept moist with saline. • 4. the intestines and caecum were manipulated along its entire length with moist cotton applicators analogous to the 'running of the bowel' in the clinical setting. This procedure was timed to last for 10 min. • 5. Intestines were gently replaced into the abdomen and the abdominal wound was stitched closed under sterile conditions. • 1. Rat was allowed to recover from isofluorane anaesthesia. • 2. Test compounds (or vehicle) were administered intravenously via previously implanted jugular catheter. • 3. Immediate intragastric gavage of methylcellulose (2%) labeled with radioactive ^99mTc, T=0. • 1. At t=15 min, animal was euthanized with CO2. • 2. Stomach and 10 cm sections along the small intestine were immediately ligated, cut and placed in tubes for measuring of ^99mTc in gamma counter. • 3. Stomach emptying and small intestinal transit were measured by calculation of the geometric mean. Geometric mean=Σ(% total radioactivity×number of segment)/100 • 1. Model adapted from Kälff et al. (1998), Ann Surg 228:652-63. • 2. Rats (male, Sprague-Dawley, 250-300 g) were implanted with jugular vein catheters to accommodate dosing of test articles. • 3. Rats were fasted O/N, anesthetized with isofluorane and subjected to abdominal surgery. • 4. Following an abdominal incision, the smalt intestine caecum and large intestine were eviscerated for a period of 15 min and kept moist with saline. • 5. […] Radioactivity (^99mTc) in each tissue isolate was measured as a means of measuring the transit of the meal.

[2] = molecular target: T1, human ghrelin receptor (hGHS-R1a) (Homo sapiens, UniProt Q92847); assay: Aequorin functional assay (ghrelin receptor), CHO-K1 cells co-expressing Gα16 and aequorin; format: cell-based; conditions: read-out: EC50
T1 construct: host or cells: CHO-K1 co-expressing Gα16 and mitochondrially targeted aequorin
In short: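 CHO-K1 cells expressing hGHS-R1a, Gα16 and mitochondrial aequorin, loaded overnight at rt with 5 μM coelenterazine, then challenged in DMEM/0.1% BSA pH 7.0 with compound at 0.001–10 μM (DMSO <0.6%).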

T1 sequence (Q92847 whole entry): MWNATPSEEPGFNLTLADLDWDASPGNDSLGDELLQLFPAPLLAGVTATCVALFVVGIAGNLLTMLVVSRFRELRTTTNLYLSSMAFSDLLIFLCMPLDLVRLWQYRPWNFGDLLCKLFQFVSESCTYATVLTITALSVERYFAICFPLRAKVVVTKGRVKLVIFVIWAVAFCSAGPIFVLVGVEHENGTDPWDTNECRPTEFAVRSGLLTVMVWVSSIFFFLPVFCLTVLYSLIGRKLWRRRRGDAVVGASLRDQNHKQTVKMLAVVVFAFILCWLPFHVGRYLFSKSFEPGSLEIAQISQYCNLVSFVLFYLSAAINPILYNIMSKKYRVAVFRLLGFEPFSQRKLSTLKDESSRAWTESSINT

## CC1C(=O)NC(Cc2ccc(F)cc2)C(=O)NCCCc2ccccc2O[C@H](C)CNC(C2CC2)C(=O)N1C (some centres unmarked) [compound 298]
[1]; 100 μg/kg (i.v.)
  promotion of GI transit (geometric center of the meal) vs POI+vehicle: 2.7 ×
[1]; 100 μg/kg i.v., n=5, FIG. 8
  effect on postoperative ileus vs POI+vehicle treated rats: significantly improves postoperative ileus
[1]; 100 and 300 μg/kg (i.v.)
  gastric emptying and intestinal transit in POI rats: significantly increased gastric emptying and intestinal transit
[2]; Table 4, functional (agonist) activity, TFA salts unless otherwise noted
  EC50: 1 to 100 nM
[2]; activation of hGHS-R1a, FIG. 11
  EC50: 25 nM
